{"source": "ChEMBL document CHEMBL1141670", "about": "“QSAR analysis of 1,3-diaryl-4,5,6,7-tetrahydro-2H-isoindole derivatives as selective COX-2 inhibitors” (Eur J Med Chem, 2008)"}
{"target": "T1, Prostaglandin G/H synthase 2 (Mus musculus, UniProt Q05769)", "T1 sequence (Q05769 whole entry)": "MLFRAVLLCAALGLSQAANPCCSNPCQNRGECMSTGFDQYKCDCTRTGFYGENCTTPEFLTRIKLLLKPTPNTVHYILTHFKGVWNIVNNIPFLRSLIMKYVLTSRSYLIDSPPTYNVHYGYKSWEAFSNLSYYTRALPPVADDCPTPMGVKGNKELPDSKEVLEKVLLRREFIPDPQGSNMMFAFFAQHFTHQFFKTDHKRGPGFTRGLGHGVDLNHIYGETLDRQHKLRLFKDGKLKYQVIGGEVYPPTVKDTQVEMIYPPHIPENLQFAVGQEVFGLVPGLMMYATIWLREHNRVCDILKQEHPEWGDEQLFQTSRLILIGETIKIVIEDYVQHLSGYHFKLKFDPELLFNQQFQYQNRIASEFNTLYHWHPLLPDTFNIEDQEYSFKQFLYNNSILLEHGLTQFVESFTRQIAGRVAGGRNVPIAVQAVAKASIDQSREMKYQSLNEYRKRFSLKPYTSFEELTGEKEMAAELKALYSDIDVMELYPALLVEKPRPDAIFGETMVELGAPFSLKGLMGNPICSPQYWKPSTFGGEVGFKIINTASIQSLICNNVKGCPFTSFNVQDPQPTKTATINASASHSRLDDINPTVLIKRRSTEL", "test": "Inhibition of mouse macrophage COX2", "units": {"IC50": "nM"}}
{"smiles": "CC1=C(C)Cc2c(c(-c3ccccc3)n(C)c2-c2ccccc2)C1", "IC50": 1000}
{"smiles": "Cc1ccc(-c2[nH]c(-c3ccc(C)cc3)c3c2CCCC3)cc1", "IC50": 16.7}
{"smiles": "CS(=O)(=O)c1ccc(-c2[nH]c(-c3ccc(S(C)(=O)=O)cc3)c3c2C2CCC3C2)cc1", "IC50": 10000}
